Test results from ChEMBL document CHEMBL6121002, “Discovery of novel bicyclic and tricyclic cyclohepta[b]thiophene derivatives as multipotent AChE and BChE inhibitors, in-Vivo and in-Vitro assays, ADMET and molecular docking simulation” (Eur J Med Chem, 2025).
The source made the active and inactive calls. The calls are words filed in the database; no cut-off is given here.

How the values were obtained:
[1] = test system: Rattus norvegicus; assay: Antialzheimer activity in AlCl3-induced learning and memory impairment in Sprague-Dawley rat assessed as fold increase in norepinephrine level in brain tissue at 30 mg/kg, po measured after 5 weeks by fluorometric analysis relative to control; assay type: functional
[2] = test system: Rattus norvegicus; assay: Antialzheimer activity in AlCl3-induced learning and memory impairment in Sprague-Dawley rat assessed as fold increase in 5-HT level in brain tissue at 30 mg/kg, po measured after 5 weeks by fluorometric analysis relative to control; assay type: functional
[3] = test system: Rattus norvegicus; assay: Antialzheimer activity in AlCl3-induced learning and memory impairment in Sprague-Dawley rat assessed as reduction in TNF-alpha level in brain tissue at 30 mg/kg, po measured after 5 weeks by ELISA relative to control; assay type: functional; design: scale not given: the % may be the effect or the level left
[4] = test system: Rattus norvegicus; assay: Antialzheimer activity in AlCl3-induced learning and memory impairment in Sprague-Dawley rat assessed as reduction in escape latency time at 30 mg/kg, po measured after 5 weeks by MWM test relative to control; assay type: functional; design: scale not given: the % may be the effect or the level left
[5] = test system: Rattus norvegicus; assay: Antialzheimer activity in AlCl3-induced learning and memory impairment in Sprague-Dawley rat assessed as fold increase in time spent in target quadrant at 30 mg/kg, po measured after 5 weeks by […] relative to control; assay type: functional
[6] = test system: Rattus norvegicus; assay: Antialzheimer activity in AlCl3-induced learning and memory impairment in Sprague-Dawley rat assessed as spontaneous alternation at 30 mg/kg, po measured after 5 weeks by Y-maze test (reference value: 50 +/- 2.89 %); assay type: functional
[7] = molecular target: Cholinesterase (Homo sapiens, UniProt P06276); assay: Inhibition of BChE (unknown origin) using butyrylthiocholine iodide as substrate incubated for 20 mins by fluorescence based assay
Chain of Cholinesterase (P06276 whole entry): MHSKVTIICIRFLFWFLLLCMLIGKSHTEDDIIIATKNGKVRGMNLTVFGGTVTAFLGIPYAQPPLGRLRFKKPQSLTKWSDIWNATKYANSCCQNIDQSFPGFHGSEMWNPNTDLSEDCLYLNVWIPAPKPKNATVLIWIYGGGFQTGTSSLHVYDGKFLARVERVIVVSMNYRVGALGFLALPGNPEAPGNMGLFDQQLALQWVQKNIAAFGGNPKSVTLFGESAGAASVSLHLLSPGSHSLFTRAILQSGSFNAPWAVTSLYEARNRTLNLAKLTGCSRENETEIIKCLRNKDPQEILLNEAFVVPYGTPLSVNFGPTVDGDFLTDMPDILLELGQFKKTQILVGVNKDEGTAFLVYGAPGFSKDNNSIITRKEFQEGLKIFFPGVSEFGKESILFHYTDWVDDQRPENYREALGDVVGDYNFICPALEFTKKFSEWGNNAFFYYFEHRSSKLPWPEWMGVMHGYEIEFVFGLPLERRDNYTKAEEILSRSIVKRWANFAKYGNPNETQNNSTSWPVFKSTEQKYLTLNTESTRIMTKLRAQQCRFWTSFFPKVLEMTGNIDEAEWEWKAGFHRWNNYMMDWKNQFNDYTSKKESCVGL

[8] = test system: Rattus norvegicus; assay: Antialzheimer activity in AlCl3-induced learning and memory impairment in Sprague-Dawley rat assessed as time taken for memory at 30 mg/kg, po measured after 5 weeks by MWM test (reference value: 6.833 +/- 0.79 sec); assay type: functional
[9] = molecular target: Acetylcholinesterase (Homo sapiens, UniProt P22303); assay: Inhibition of AChE (unknown origin) incubated for 40 mins in presence of substrate
Chain of Acetylcholinesterase (P22303 whole entry): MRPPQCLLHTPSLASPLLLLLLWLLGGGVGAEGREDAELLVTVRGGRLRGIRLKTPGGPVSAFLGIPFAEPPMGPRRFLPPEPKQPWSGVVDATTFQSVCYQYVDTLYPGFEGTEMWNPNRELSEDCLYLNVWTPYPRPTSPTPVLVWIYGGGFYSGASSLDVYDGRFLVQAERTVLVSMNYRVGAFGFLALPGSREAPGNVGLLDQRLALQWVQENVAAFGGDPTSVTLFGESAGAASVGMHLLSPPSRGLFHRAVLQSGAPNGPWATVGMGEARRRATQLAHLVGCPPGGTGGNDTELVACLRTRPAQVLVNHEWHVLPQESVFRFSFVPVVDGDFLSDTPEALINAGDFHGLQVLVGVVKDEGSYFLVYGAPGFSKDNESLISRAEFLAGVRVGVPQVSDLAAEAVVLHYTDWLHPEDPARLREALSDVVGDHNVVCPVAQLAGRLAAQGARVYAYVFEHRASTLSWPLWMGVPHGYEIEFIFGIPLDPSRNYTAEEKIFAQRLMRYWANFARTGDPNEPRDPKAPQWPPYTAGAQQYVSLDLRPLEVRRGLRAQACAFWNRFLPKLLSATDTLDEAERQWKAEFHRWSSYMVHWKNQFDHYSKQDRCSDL

[10] = Selectivity index, ratio of IC50 for BChE (unknown origin) using butyrylthiocholine iodide as substrate to IC50 for AChE (unknown origin)
[11] = test system: Rattus norvegicus; assay: Antialzheimer activity in AlCl3-induced learning and memory impairment in Sprague-Dawley rat assessed as increase in time spent in target quadrant at 30 mg/kg, po measured after 5 weeks by […]; assay type: functional, organism-based
[12] = test system: Rattus norvegicus; assay: Antialzheimer activity in AlCl3-induced learning and memory impairment in Sprague-Dawley rat assessed as fold increase in dopamine level in brain tissue at 30 mg/kg, po measured after 5 weeks by fluorometric analysis relative to control; assay type: functional
[13] = test system: Rattus norvegicus; assay: Antialzheimer activity in AlCl3-induced learning and memory impairment in Sprague-Dawley rat assessed as time taken for learning at 30 mg/kg, po measured after 5 weeks by MWM test (reference value: 53.67 +/- 1.05 sec); assay type: functional
[14] = test system: Rattus norvegicus; assay: Antialzheimer activity in AlCl3-induced learning and memory impairment in Sprague-Dawley rat assessed as fold decrease in AChE level in brain tissue at 30 mg/kg, po measured after 5 weeks by fluorometric analysis relative to control; assay type: functional

| Compound | fold change (FC) [1] | fold change (FC) [2] | Activity [3] [%] | Activity [4] | fold change (FC) [5] | Activity [6] [%] | IC50 [7] [µM] | Time [8] [s] | IC50 [9] [µM] | Ratio IC50 [10] | Activity [11] | fold change (FC) [12] | Time [13] [s] | fold change (FC) [14] |
| --- | --- | --- | --- | --- | --- | --- | --- | --- | --- | --- | --- | --- | --- | --- |
| O=C1c2c(sc3c2CCCCC3)OC(c2ccc(Cl)cc2)N1c1ccc(Cl)cc1 (stereo not drawn) | ~3.2 | 5.8 | 73.9 | 22% | 6.5 | 83.33 | 308 | 46.5 | 12.6 | 24.4 | Active | 4.2 | 11.83 | – |
| COc1ccc(N2C(=O)c3c(sc4c3CCCCC4)OC2c2ccc(Cl)cc2)cc1 (stereo not drawn) | 2.9 | 5.1 | 70.8 | 30% | 5.9 | 85 | 7.76 | 41.67 | 3.14 | 2.47 | Active | 3.8 | 16.33 | – |
| O=C1c2c(sc3c2CCCCC3)OC(c2ccc(Cl)cc2)N1c1ccccc1 (stereo not drawn) | 1.7 | – | 54.6 | <=46% | 5.4 | 73.83 | 6.9 | 36.83 | 0.55 | 12.6 | Active | 1.7 | 24.67 | 2.3 |
| O=C1c2c(sc3c2CCCCC3)OC(c2ccccc2)N1c1ccccc1 (stereo not drawn) | 2.2 | 4.5 | 61.2 | 32% | 5.3 | 80 | 2.48 | 35.83 | 0.51 | 4.86 | Active | 3.8 | 17 | 3.5 |
| CCOC(=O)c1c(OC(=O)c2ccc(Cl)cc2)sc2c1CCCCC2 | – | – | 49.2 | – | – | 70.67 | 2.9 | 27.67 | 1.05 | 2.76 | Active | 1.7 | 34 | – |
| COc1cc2c(cc1OC)C(=O)C(CC1CCN(Cc3ccccc3)CC1)C2 (stereo not drawn) [DONEPEZIL] | – | – | 63 | 28% | – | 85 | – | 42.67 | – | – | Active | – | 14.78 | – |
| O=C1c2c(sc3c2CCCCC3)OC(c2ccccc2)N1c1ccc(Cl)cc1 (stereo not drawn) | 1.7 | – | 54.5 | <=47% | 5.2 | 71.5 | 24.7 | 35.5 | 9.48 | 2.6 | Active | 1.7 | 25.67 | 2.3 |
| CCOC(=O)c1c(OC(=O)c2ccccc2)sc2c1CCCCC2 | – | – | 43.8 | – | – | 63.5 | 7.5 | 24.17 | 2.16 | 3.47 | Active | 1.7 | 37 | – |
| COc1ccc(N2C(=O)c3c(sc4c3CCCCC4)OC2c2ccccc2)cc1 (stereo not drawn) | 1.7 | – | 62.6 | <=43% | 5.6 | 74.33 | 11 | 38.17 | 4.05 | 2.73 | Active | 3.5 | 23 | 2.3 |
